From patent US5518912A, “Endopeptidase” (priority 1993, dated 1996)
Positions of bridges follow the written chain, without caps; N, C: chain ends. Non-standard residues stand in square brackets, D forms with d. Residues, ends and D or L forms follow the SMILES beside them. *: point of attachment. Ileψ(thiazoline)Cys = CC[C@H](C)[C@H](N)C1=N[C@H](C(=O)*)CS1; Sta = CC(C)C[C@H](N)[C@@H](O)CC(=O)O; dOrn = NCCC[C@@H](N)C(=O)O; Isovaleryl = CC(C)CC(=O)*

Experiments:
[1] = test system: endopeptidase from the skin of Xenopus laevis; assay: Inhibitor studies: enzyme preincubated with inhibitor, then cleavage of substrate peptide read on acid gel; format: biochemical; conditions: for % INHIBITION: substrate magainin 2-amide; for effect of proteinase inhibitor on enzyme activity (in words): summary of Table 2
Experimental: Reaction buffer consisted of 20 mM Na phosphate, 50 mM NaCl final concentration. After quenching the reaction with 0.5 volume of glacial acetic acid, a 15 μl aliquot of each reaction was analyzed by acidic gel electrophoresis. […]
Inhibitor studies were conducted in the same fashion; the only difference involved first incubating the enzyme with each inhibitor tested at a particular concentration in the absence of any substrate for one hour at room temperature. Substrate was then added to the reaction and allowed to incubate for an additional hour at room temperature.
ACIDIC GEL ELECTROPHORESIS--Acidic gels (pH 4) were prepared and run as originally described (Gabriel, 1971) with several modifications. The gel solution consisted of a final concentration of 15% (v/v) acrylamide (acrylamide:bisacrylamide/37.5:1), 88 mM KOH, 3% (v/v) glacial acetic acid, 0.75% (v/v) […] (Temed), 0.375% ammonium persulfate (30 mg/ml). Before loading samples, 0.5 volume of glacial acetic acid was added, as well as 0.5 volume of 0.1% Pyronin Y loading dye. MINI PROTEAN gel apparatus (Biorad, Richmond, Calif.) were used and gels electrophoresed at 200 volts in running buffer containing 0.035M β-alanine and glacial acetic acid (2.45 ml/l), pH 4.0. Gels were stained in 0.1% (w/v) Coomassie Brilliant Blue R-250 (Sigma), 50% methanol, 50% water and destained in distilled water.

[2] = test system: endopeptidase from the skin of Xenopus laevis; assay: Substrate specificity analyses: cleavage of peptides and analogues by the purified endopeptidase (acid gel, HPLC/amino acid analysis); format: biochemical; conditions: 50 μg peptide, one hour, room temperature
Experimental: ENZYME ASSAYS--Activity was monitored by incubating 0.1-10 μl of each chromatographic fraction with 50 μg of magainin 2-amide substrate in a total volume of 100 μl for one hour at room temperature. Reaction buffer consisted of 20 mM Na phosphate, 50 mM NaCl final concentration. After quenching the reaction with 0.5 volume of glacial acetic acid, a 15 μl aliquot of each reaction was analyzed by acidic gel electrophoresis. One unit of enzyme activity is defined as the amount of enzyme required to convert 25 μg of magainin 2-amide substrate into half-peptide products under the above conditions.
Substrate specificity analyses were carried out as described above except that 50 μg of each substrate analogue under investigation was substituted for magainin 2-amide in the incubation at the same concentration.
Before loading samples, 0.5 volume of glacial acetic acid was added, as well as 0.5 volume of 0.1% Pyronin Y loading dye. […]
100 μl reactions were injected into a Beckman HPLC System Gold instrument and run on a C18 reversed phase column (4.6×220 mm, Aquapore OD-300, Applied Biosystems, Foster City, Calif.). […] Portions of the resuspended sample were injected into an amino acid analyzer with automated hydrolysis (model 420/130, Applied Biosystems, Foster City, Calif.), and numerical calculations for specific amino acids were determined using an Applied Biosystems 920A data analysis module.

[3] = inhibitor 1 mM, one unit endopeptidase preincubated one hour

c1cnc2c(c1)ccc1cccnc12 [1,10-Phenanthroline, 1,10-phenanthroline]
% INHIBITION ([1]; inhibitor 0.2 mM): 70%
% INHIBITION ([1]; inhibitor 2 mM): 100%
% INHIBITION ([1]; inhibitor 20 mM): 100%
effect of proteinase inhibitor on enzyme activity (in words) [1]: substantially inhibited enzyme activity

CC[C@H](C)[C@H](N)C1=N[C@H](C(=O)N[C@@H](CC(C)C)C(=O)N[C@H](CCC(=O)O)C(=O)N[C@H](C(=O)N[C@H]2CCCCNC(=O)[C@H](CC(N)=O)NC(=O)[C@@H](CC(=O)O)NC(=O)[C@H](Cc3cnc[nH]3)NC(=O)[C@@H](Cc3ccccc3)NC(=O)[C@H]([C@@H](C)CC)NC(=O)[C@@H](CCCN)NC2=O)[C@@H](C)CC)CS1 [Bacitracin, bacitracin] ({Ileψ(thiazoline)Cys}-L[dE]IK[dOrn]I[dF]H[dD]N; lactam 4-C)
% INHIBITION ([1]; inhibitor 1 mg/ml): 0%
effect of proteinase inhibitor on enzyme activity (in words) [1]: no effect on endoproteolysis

CC(C)C[C@H](NC(=O)[C@H]1O[C@@H]1C(=O)O)C(=O)NCCCCN=C(N)N [E-64, N-[N-(L-3-trans-carboxyoxiran-2-carbonyl)-L-leucyl]-agmatine]
% INHIBITION ([1]; inhibitor 300 μM): 0%
effect of proteinase inhibitor on enzyme activity (in words) [1]: no effect on enzyme activity

O=C(O)CN(CCN(CC(=O)O)CC(=O)O)CC(=O)O [EDTA, ethylenediaminetetraacetic acid]
% INHIBITION ([1]; inhibitor 0.5 mM): 25%
% INHIBITION ([1]; inhibitor 5 mM): 25%
% INHIBITION ([1]; inhibitor 50 mM): 50%
effect of proteinase inhibitor on enzyme activity (in words) [1]: substantially inhibited enzyme activity

CC(=O)N[C@@H](CC(C)C)C(=O)N[C@@H](CC(C)C)C(=O)N[C@H](C=O)CCCNC(=N)N [Leupeptin, leupeptin]
% INHIBITION [1, 3]: 0%
effect of proteinase inhibitor on enzyme activity (in words) [1]: no effect on enzyme activity

O=S(=O)(F)Cc1ccccc1 [PMSF, phenylmethanesulfonyl fluoride]
% INHIBITION ([1]; inhibitor 10 mM): 0%
effect of proteinase inhibitor on enzyme activity (in words) [1]: no effect on enzyme activity

CC(C)CC(=O)N[C@H](C(=O)N[C@H](C(=O)N[C@@H](CC(C)C)[C@@H](O)CC(=O)N[C@@H](C)C(=O)N[C@@H](CC(C)C)[C@@H](O)CC(=O)O)C(C)C)C(C)C [Pepstatin, pepstatin] (Isovaleryl-VV[Sta]A[Sta]-OH)
% INHIBITION ([1]; inhibitor 100 μm, one unit endopeptidase preincubated one hour): 0%
effect of proteinase inhibitor on enzyme activity (in words) [1]: no effect on enzyme activity

CC(C)C[C@H](NP(=O)(O)O[C@@H]1O[C@@H](C)[C@H](O)[C@@H](O)[C@H]1O)C(=O)N[C@@H](Cc1c[nH]c2ccccc12)C(=O)O [Phosphoramidon, phosphoramidon]
% INHIBITION ([1]; inhibitor 1 μM): 0%
% INHIBITION ([1]; inhibitor 100 μM): 0%
effect of proteinase inhibitor on enzyme activity (in words) [1]: no effect on endoproteolysis

CC[C@H](C)[C@H](NC(=O)CN)C(=O)NCC(=O)N[C@@H](C)C(=O)N[C@H](C(=O)N[C@@H](CC(C)C)C(=O)N[C@@H](CCCCN)C(=O)N[C@H](C(=O)N[C@@H](CC(C)C)C(=O)N[C@H](C(=O)N[C@H](C(=O)NCC(=O)N[C@@H](CC(C)C)C(=O)N1CCC[C@H]1C(=O)N[C@@H](C)C(=O)N[C@@H](CC(C)C)C(=O)N[C@H](C(=O)N[C@@H](CO)C(=O)N[C@@H](Cc1c[nH]c2ccccc12)C(=O)N[C@H](C(=O)N[C@@H](CCCCN)C(=O)N[C@@H](CCCNC(=N)N)C(=O)N[C@@H](CCCCN)C(=O)N[C@@H](CCCNC(=N)N)C(=O)N[C@@H](CCC(N)=O)C(=O)N[C@@H](CCC(N)=O)C(N)=O)[C@@H](C)CC)[C@@H](C)CC)[C@@H](C)O)[C@@H](C)O)C(C)C)C(C)C [melittin]
cleavage of the peptide by the endopeptidase (in words) [2]: do not serve as substrates
inhibition of cleavage of magainin 2 ([1]; preincubation with tenfold molar excess of peptide, substrate magainin 2): approximately 25%

K11R: magainin 1 analogue constituting the replacement of all lysines with arginines
cleavage of the peptide by the endopeptidase (in words) [2]: effectively served as a substrate

tosyl-L-phenylalanine chloromethyl ketone [TPCK]
% INHIBITION [1, 3]: 0%
effect of proteinase inhibitor on enzyme activity (in words) [1]: no effect on enzyme activity
